Activity calls are given as the source filed them. The calls are words filed in the database; no cut-off is given here.
Key:
Homo sapiens = species: Homo sapiens; assay: Inhibition of mitochondrial complex I (unknown origin) at 1 uM incubated for 15 mins by microplate reader analysis relative to control
[1] = Inhibition of mitochondrial complex I (unknown origin) incubated for 15 mins by microplate reader analysis; parameters: species or system Homo sapiens
KG-1 [2] = assay: Induction of ROS generation in human KG-1 cells at 32 nM measured for 30 mins by DCFDA-staining based flow cytometry analysis; type: functional, cell-based
[3] = Apparent permeability across apical to basolateral side in human Caco-2 cells incubated for 120 mins by LC-MS/MS analysis; type: ADME, cell-based
HCT-116 [4] = assay: Induction of mitochondrial membrane potential depolarization in human HCT-116 cells at 2 nM incubated for 24 hrs by JC-1 staining based flow cytometry analysis; type: functional
KG-1 [5] = assay: Antiproliferative activity against human KG-1 cells assessed as inhibition of cell growth incubated for 96 hrs by MTT assay; type: functional, cell-based; settings: KG-1, 96 h
NCM460 = assay: Antiproliferative activity against human NCM460 cells assessed as inhibition of cell growth incubated for 96 hrs by MTT assay; type: functional, cell-based; settings: NCM460, 96 h
[6] = Apparent permeability across basolateral side to apical in human Caco-2 cells incubated for 120 mins by LC-MS/MS analysis; type: ADME, cell-based
HCT-116 [7] = assay: Antiproliferative activity against human HCT-116 cells assessed as inhibition of cell growth incubated for 96 hrs by MTT assay; type: functional, cell-based; settings: HCT-116, 96 h
[8] = Efflux ratio of apparent permeability across basolateral to apical membrane to apical to basolateral membrane in human Caco-2 cells incubated for 120 mins by LC-MS/MS analysis; type: ADME, cell-based

Row | SMILES | inhibition (Homo sapiens) [%] | also measured
1 | Cc1cc(C(=O)Nc2ccccc2OC(F)(F)F)nn1Cc1cccc(N2CCN(C(=O)C3CC3)CC2)c1 | 1.87 | –
2 | Cc1ccccc1Cn1nc(C(=O)Nc2ccc(OC(F)(F)F)cc2)cc1C | 1.7 | –
3 | COc1ccc(NC(=O)c2cc(C)n(Cc3cccc(N4CCN(C(=O)C5CC5)CC4)c3)n2)cc1OC | 4.85 | –
4 | Cc1cc(C(=O)Nc2ccc(OC(F)(F)F)cc2)nn1Cc1cccc(N2CCC(S(C)(=O)=O)CC2)c1 | 49.7 | IC50 [1]: 0.96 µM
5 | Cc1cc(C(=O)Nc2ccc(OC(F)(F)F)cc2)nn1Cc1cccc(S(=O)(=O)N2CCOCC2)c1 | 4.42 | –
6 | Cc1cccc(NC(=O)c2cc(C)n(Cc3cccc(N4CCN(C(=O)C5CC5)CC4)c3)n2)c1 | 6.44 | –
7 | C=C(C)[C@H]1Cc2c(ccc3c2O[C@@H]2COc4cc(OC)c(OC)cc4[C@@H]2C3=O)O1 | 71.8 | –
8 | Cc1cn(Cc2cccc(N3CCC(S(C)(=O)=O)CC3)c2)nc1C(=O)Nc1ccc(OC(F)(F)F)cc1 | 9.43 | –
9 | Cc1cc(C(=O)Nc2ccc(OC(F)(F)F)cc2)nn1Cc1cccc(N2CCN(S(C)(=O)=O)CC2)c1 | 50.4 | IC50 [1]: 1.06 µM
10 | Cc1ccc(Cn2nc(C(=O)Nc3ccc(OC(F)(F)F)cc3)cc2C)cc1 | 8.06 | –
11 | Cc1cc(C(=O)Nc2ccc(OC(F)(F)F)cc2)nn1Cc1ccc(N2CCC(S(C)(=O)=O)CC2)cc1 | 3.85 | –
12 | Cc1ccc(NC(=O)c2cc(C)n(Cc3cccc(N4CCN(C(=O)C5CC5)CC4)c3)n2)cc1F | 3.49 | –
13 | Cc1cc(C(=O)Nc2ccc(OC(F)(F)F)cc2)nn1Cc1cccc(N2CCS(=O)(=O)CC2)c1 | 6.09 | –
14 | Cc1cc(C(=O)Nc2cccnc2)nn1Cc1cccc(N2CCN(C(=O)C3CC3)CC2)c1 | 16.1 | –
15 | Cc1cc(C(=O)Nc2ccc(F)cc2)nn1Cc1cccc(N2CCN(C(=O)C3CC3)CC2)c1 | 8.24 | –
16 | Cc1cc(C(=O)Nc2ccc(OC(F)(F)F)cc2)nn1Cc1cccc(Br)c1 | 1.54 | –
17 | COc1ccccc1-c1cccc(Cn2nc(C(=O)Nc3ccc(OC(F)(F)F)cc3)cc2C)c1 | 3.57 | –
18 | Cc1cc(C(=O)Nc2ccc(OC(F)(F)F)cc2)nn1Cc1cccc(-c2ccccc2O)c1 | 25.6 | –
19 | Cc1cc(C(=O)Nc2ccccc2F)nn1Cc1cccc(N2CCN(C(=O)C3CC3)CC2)c1 | 1.72 | –
20 | Cc1cc(C(=O)Nc2ccc(OC(F)(F)F)cc2)nn1Cc1cccc(-c2ccc(C(C)(C)C)cc2)c1 | 29.6 | –
21 | Cc1cc(C)cc(-c2cccc(Cn3nc(C(=O)Nc4ccc(OC(F)(F)F)cc4)cc3C)c2)c1 | 3.73 | –
22 | CS(=O)(=O)C1CCN(c2cccc(Cn3nc(C(=O)Nc4ccc(OC(F)(F)F)cc4)cc3-c3ccccc3)c2)CC1 | 36.3 | IC50 [1]: 1.41 µM

Row | SMILES | inhibition (Homo sapiens) [%] | also measured
23 | Cc1nc(-c2nc(-c3ccc(OC(F)(F)F)cc3)no2)nn1Cc1cccc(N2CCC(S(C)(=O)=O)CC2)c1 | 32.7 | Activity (KG-1 [2]): Active; Papp A→B at 2 h [3]: 4.86 ×10⁻⁶ cm/s; IC50 [1]: 115 µM; Activity (HCT-116 [4]): 21.1%; IC50 (KG-1 [5]): 0.0638 µM; IC50 (NCM460): > 1 µM; Papp B→A at 2 h [6]: 3.33 ×10⁻⁶ cm/s; IC50 (HCT-116 [7]): 0.00963 µM; efflux ratio at 2 h [8]: 0.68
24 | Cc1cc(C(=O)Nc2ccc(OC(F)(F)F)cc2)nn1Cc1cccnc1 | 1.37 | –
25 | CS(=O)(=O)C1CCN(c2cccc(Cn3nc(C(=O)Nc4ccc(OC(F)(F)F)cc4)c4c5nn(c6ccccc56)c43)c2)CC1 | 1.12 | IC50 [1]: 91.3 µM
26 | COc1ccc(NC(=O)c2cc(C)n(Cc3cccc(N4CCN(C(=O)C5CC5)CC4)c3)n2)cc1 | 5.23 | –
27 | COc1cc(Cn2nc(C(=O)Nc3ccc(OC(F)(F)F)cc3)cc2C)cc(OC)c1 | 2.05 | –
28 | Cc1cc(C(=O)Nc2ccccc2)nn1Cc1cccc(N2CCN(C(=O)C3CC3)CC2)c1 | 7.12 | –
29 | Cc1cc(C(=O)Nc2cccc(OC(F)(F)F)c2)nn1Cc1cccc(N2CCN(C(=O)C3CC3)CC2)c1 | 3.1 | –
30 | Cc1cc(C(=O)Nc2ccc(OC(F)(F)F)cc2)nn1Cc1cccc(N(C)C2CCOCC2)c1 | 13.5 | –
31 | CS(=O)(=O)C1CCN(c2cccc(Cn3nc(C(=O)Nc4ccc(OC(F)(F)F)cc4)c4c5nn(c6c5CCC6)c43)c2)CC1 | 29.2 | IC50 [1]: 91.3 µM
32 | Cc1cc(C(=O)Nc2ccc(OC(F)(F)F)cc2)nn1Cc1cccc(-c2ccc(S(C)(=O)=O)cc2)c1 | 52.5 | IC50 [1]: 0.86 µM
33 | Cc1cc(C(=O)Nc2ccc(OC(F)(F)F)cc2)nn1Cc1cccc(N2CCOCC2)c1 | 8.94 | –
34 | CS(=O)(=O)C1CCN(c2cccc(Cn3ccc(C(=O)Nc4ccc(OC(F)(F)F)cc4)n3)c2)CC1 | 26.6 | –
35 | CS(=O)(=O)C1CCN(c2cccc(Cn3nc(C(=O)Nc4ccc(OC(F)(F)F)cc4)c4c5nn(c6c5COCC6)c43)c2)CC1 | 13.2 | IC50 [1]: 101 µM
36 | Cc1cc(C(=O)Nc2cc(F)cc(F)c2)nn1Cc1cccc(N2CCN(C(=O)C3CC3)CC2)c1 | 9.58 | –
37 | Cc1cc(C(=O)Nc2ccc(OC(F)(F)F)cc2)nn1Cc1ccccc1 | 1.03 | –
38 | Cc1cc(C(=O)Nc2ccc(Cl)c(F)c2)nn1Cc1cccc(N2CCN(C(=O)C3CC3)CC2)c1 | 11.1 | –
39 | CC(C)(C)c1cc(C(=O)Nc2ccc(OC(F)(F)F)cc2)nn1Cc1cccc(N2CCC(S(C)(=O)=O)CC2)c1 | 38.7 | IC50 [1]: 1.36 µM
40 | Cc1cc(C(=O)Nc2cccc(F)c2)nn1Cc1cccc(N2CCN(C(=O)C3CC3)CC2)c1 | 1.54 | –
41 | Cc1cc(C(=O)Nc2ccc(OC(F)(F)F)cc2)nn1Cc1ccc2ccccc2c1 | 4.6 | –
42 | Cc1ccc(NC(=O)c2cc(C)n(Cc3cccc(N4CCN(C(=O)C5CC5)CC4)c3)n2)cc1 | 7.73 | –
43 | Cc1cc(C(=O)Nc2ccc(OC(F)(F)F)cc2)nn1Cc1ccc(F)c(Br)c1 | 1.32 | –
